One may read the EC50 as the concentration that produces a half-maximal response. The term CC50 denotes the concentration giving 50% cytotoxicity.

This is an account of results in PMC12186339, “Assessment of the structure–activity relationship of analogs of the Naegleria fowleri enolase inhibitor HEX” (RSC Medicinal Chemistry, 2025).

In data set [1] the test system is N. fowleri strain TY (ATCC 30107) trophozoites. The data set can be described thus: In vitro growth inhibition of N. fowleri trophozoites (CellTiter-Glo). In kind it is cell-based, Naegleria fowleri. To be noted: for EC50: Naegleria fowleri, read-out: N. fowleri EC50. As to the method: N. fowleri strain TY (ATCC 30107) trophozoites were routinely cultured in T-75 TC-treated flasks at 37 °C and 5% CO2 in media that has been previously described.[10] All compounds described were reconstituted in DMSO for testing, with final concentrations kept at <1% in the assays. To test the inhibitory activity of the compounds on cell growth, 1 × 10^4 cells per mL were seeded in white 96-well plates with 100 μM compound. Cells and compound were incubated at 37 °C and 5% CO2 for 48 hours. CellTiter-Glo reagent (Promega G7570) was then added to each well and luminescence was read using a BioTek Synergy H1 Microplate Reader. […] All reactions were performed in technical triplicate. If growth inhibition was <50% at the concentration tested, EC50 was reported to be above that value.

A short description of data set [2]: Human cell growth inhibition (CellTiter Blue). Type of data set: cell-based. To be noted: HEK-293, 48 hours, read-out: Human cell line CC50. As to the method:
To determine the amount of agent required to inhibit human cell growth 50% (the CC50 value), human embryonic kidney cells (ATCC HEK-293) were seeded at 5 × 10^4 cells per well in 100 μL of Dulbecco's modified Eagle's medium in tissue culture-treated clear bottom black 96 well plates (Gibco). Cells were incubated with compounds for 48 hours, followed by addition of CellTiter Blue (Promega, Madison, WI, USA) After a 3 hour incubation and equilibration for 15 minutes at room temperature, fluorescence (Ex: 560 nm, EM: 590 nm) was measured and the percentage of growth inhibition was calculated using untreated controls.

A further data set has as its target NfENO (Naegleria fowleri, UniProt A0A6A5BXC3). Kind of data set: NfENO pyruvate kinase/lactate dehydrogenase-coupled activity assay. Type of data set: biochemical. To be noted: at 100 μM. As to the method:
Using the full-length protein (NF0118810, AmoebaDB, https://amoebadb.org/amoeba/app/), an E. coli codon-optimized construct was designed to express a truncated version of NfENO (residues 44–512) to improve solubility.[10]NfENO was heterologously expressed in BL2(DE3)R3 Rosetta cells and expression induced with 0.5 mM isopropyl-β-D-1-thiogalactopyranoside (IPTG) overnight at 37 °C. Cells were lysed using a lysozyme and 10% Triton X-100 based lysis buffer and purified with Ni-NTA agarose beads (Qiagen). Activity assays were conducted in triplicate using a pyruvate kinase/lactate dehydrogenase-coupled assay. Approximately 75 nM of NfENO in assay buffer (100 mM HEPES, pH 8.5, 3.3 mM MgSO4, 120 mM KCl, 1.75 mM ADP, 1 U pyruvate kinase/lactate dehydrogenase, and 0.4 mM NADH) was added to black 96-well plates. For assays in the presence of inhibitor, compounds were resuspended in DMSO, added to the wells, and incubated with enzyme in assay buffer for 15 minutes at room temperature. DMSO was included as a vehicle control. Assays were initiated by addition of substrate solution (3.75 mM 2-PG) and fluorescence emission at 460 nm after excitation at 360 nm was monitored every 20 seconds for 4 minutes using a Biotek Synergy H1 microplate reader. The rate of fluorescence reduction was measured to monitor the conversion of NADH to NAD+. […]

Setting [3] is: ATCC30107, trophozoites, 48 hours.

The structures appear in SMILES notation. Like-named read-outs stand apart in the source and are kept apart here.

Chain of NfENO (A0A6A5BXC3 entry or part of it): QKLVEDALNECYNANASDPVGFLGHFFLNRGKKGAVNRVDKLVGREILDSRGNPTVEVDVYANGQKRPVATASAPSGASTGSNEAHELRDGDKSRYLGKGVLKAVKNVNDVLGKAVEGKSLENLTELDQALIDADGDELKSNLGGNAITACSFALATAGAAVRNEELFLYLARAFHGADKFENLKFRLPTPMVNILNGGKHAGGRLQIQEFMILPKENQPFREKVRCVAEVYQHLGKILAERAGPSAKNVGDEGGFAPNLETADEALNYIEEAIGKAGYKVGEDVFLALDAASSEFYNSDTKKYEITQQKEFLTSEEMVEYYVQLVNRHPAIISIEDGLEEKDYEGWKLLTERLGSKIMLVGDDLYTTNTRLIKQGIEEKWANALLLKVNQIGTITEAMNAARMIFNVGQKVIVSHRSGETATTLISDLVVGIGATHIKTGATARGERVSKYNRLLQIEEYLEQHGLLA

For `NN1CCCC(P(=O)(O)O)C1=O` (stereo not shown) [Compound 1, (1-Amino-2-oxopiperidin-3-yl)phosphonic acid], the EC50 in data set [1] (ATCC30107, 48 h) is over 25 µM. For the molecule `O=C1C(P(=O)(O)O)c2ccccc2CN1O` (stereo not shown) [Compound 2, (2-Hydroxy-3-oxo-1,2,3,4-tetrahydroisoquinolin-4-yl)phosphonic acid], the CC50 at 48 h in data set [2] (HEK-293 cells) is over 25 µM. In addition, the EC50 in data set [1] (setting [3]) is over 25 µM. In data set [1] (at higher concentrations than 25 μM (100 μM screen), 48 hours), the “activity on N. fowleri growth” value is listed as “modest activity”. Turning to `O=C1C(P(=O)(O)O)CCCN1CCO` (stereo not shown) [Compound 3, (1-(2-Hydroxyethyl)-2-oxopiperidin-3-yl)phosphonic acid], the EC50 in data set [1] (ATCC30107, 48 h) is over 25 µM. Take `O=C1C(S(=O)(=O)O)CCCN1O` (stereo not shown) [Compound 4, 1-Hydroxy-2-oxopiperidine-3-sulfonic acid]: the EC50 in data set [1] (setting [3]) is over 25 µM. Consider `O=C1[C@@H](P(=O)(O)O)[C@@H]2CCCC[C@H]2CN1O` [Compound 5, ((4S,4aR,8aR)-2-Hydroxy-3-oxodecahydroisoquinolin-4-yl)phosphonic acid], for which, in data set [1] (setting [3]), the concentration giving a half-maximal response (EC50) was over 25 µM.

With `O=C1NCCCC1P(=O)(O)O` (stereo not shown) [Compound 6, (2-Oxopiperidin-3-yl)phosphonic acid], the “effect on NfENO” value on NfENO is “no effect”. Also, the 50% effective concentration (EC50) in data set [1] (ATCC30107, 48 h) is over 25 µM. Turning to `O=C1SCCCC1P(=O)(O)O` (stereo not shown) [Compound 7, (2-Oxotetrahydro-2H-thiopyran-3-yl)phosphonic acid], on NfENO, the “effect on NfENO” value was “no effect”. Further, the half-maximal effective concentration (EC50) in data set [1] (ATCC30107, 48 h) is over 25 µM. On to `O=C1C(P(=O)(O)O)CCCN1O` (stereo not shown) [HEX, (1-hydroxy-2-oxopiperidin-3-yl)phosphonic acid, reference compound], for which, in data set [2], the half-maximal cytotoxic concentration (CC50) at 48 h is over 100 µM. Further, the 50% effective concentration (EC50) in data set [1] (ATCC30107, 48 h) came out at 0.21 ± 0.02 µM.
